Reference: ChEMBL document CHEMBL3217447, “Biosynthetic gene cluster and antimicrobial activity of the elfamycin antibiotic factumycin” (2012)

Experiments:
Format in all cases: functional
Pseudomonas aeruginosa [1] = assay: Antibacterial activity against Pseudomonas aeruginosa GDW789 assessed as growth inhibition
Staphylococcus aureus [2] = assay: Antibacterial activity against Staphylococcus aureus ATCC 29213 assessed as growth inhibition
Staphylococcus aureus [3] = assay: Antibacterial activity against Staphylococcus aureus CMRSA7 assessed as growth inhibition
Escherichia coli [4] = assay: Antibacterial activity against Escherichia coli ATCC 25922 assessed as growth inhibition
Escherichia coli [5] = assay: Antibacterial activity against Escherichia coli […] by microdilution checkerboard method in presence of tetracycline
Pseudomonas aeruginosa [6] = assay: Antibacterial activity against Pseudomonas aeruginosa PAO1 assessed as growth inhibition
Staphylococcus aureus [7] = assay: Antibacterial activity against Staphylococcus aureus ATCC 29213 by microdilution checkerboard method in presence of tetracycline
Pseudomonas aeruginosa [8] = assay: Antibacterial activity against Pseudomonas aeruginosa PAO1 by microdilution checkerboard method in presence of tetracycline
Klebsiella pneumoniae [9] = assay: Antibacterial activity against Klebsiella pneumoniae by microdilution checkerboard method in presence of tetracycline
Pseudomonas aeruginosa [10] = assay: Antibacterial activity against Pseudomonas aeruginosa GDW787 assessed as growth inhibition
Escherichia coli [11] = assay: Antibacterial activity against Escherichia coli GDW918 assessed as growth inhibition
Acinetobacter baumannii [12] = assay: Antibacterial activity against Acinetobacter baumannii ATCC 17978 assessed as growth inhibition
Acinetobacter baumannii [13] = assay: Antibacterial activity against Acinetobacter baumannii mrH5 assessed as growth inhibition
Acinetobacter baumannii [14] = assay: Antibacterial activity against Acinetobacter baumannii B00919434 assessed as growth inhibition
Escherichia coli [15] = assay: Antibacterial activity against Escherichia coli GDW914 assessed as growth inhibition
Staphylococcus aureus [16] = assay: Antibacterial activity against Staphylococcus aureus CMRSA6 assessed as growth inhibition
Staphylococcus aureus [17] = assay: Antibacterial activity against Staphylococcus aureus CMRSA5 assessed as growth inhibition
Pseudomonas aeruginosa [18] = assay: Antibacterial activity against Pseudomonas aeruginosa GDW790 assessed as growth inhibition
Acinetobacter baumannii [19] = assay: Antibacterial activity against Acinetobacter baumannii mrH3 assessed as growth inhibition
Pseudomonas aeruginosa [20] = assay: Antibacterial activity against Pseudomonas aeruginosa GDW788 assessed as growth inhibition
Acinetobacter baumannii [21] = assay: Antibacterial activity against Acinetobacter baumannii ATCC 17978 by microdilution checkerboard method in presence of tetracycline
Acinetobacter baumannii [22] = assay: Antibacterial activity against Acinetobacter baumannii mrH4 assessed as growth inhibition
Acinetobacter baumannii [23] = assay: Antibacterial activity against Acinetobacter baumannii B00636584 assessed as growth inhibition
Enterococcus faecalis [24] = assay: Antibacterial activity against Enterococcus faecalis ATCC 51299 assessed as growth inhibition
Klebsiella pneumoniae [25] = assay: Antibacterial activity against Klebsiella pneumoniae GDW915 assessed as growth inhibition
Enterococcus faecalis [26] = assay: Antibacterial activity against Enterococcus faecalis ATCC 29212 assessed as growth inhibition
Acinetobacter baumannii [27] = assay: Antibacterial activity against Acinetobacter baumannii GDW787 assessed as growth inhibition
Enterococcus faecalis [28] = assay: Antibacterial activity against Enterococcus faecalis ATCC 29212 by microdilution checkerboard method in presence of tetracycline
Klebsiella pneumoniae [29] = assay: Antibacterial activity against Klebsiella pneumoniae GDW917 assessed as growth inhibition
Acinetobacter baumannii [30] = assay: Antibacterial activity against Acinetobacter baumannii mrH4 by microdilution checkerboard method in presence of tetracycline
Escherichia coli [31] = assay: Antibacterial activity against Escherichia coli GDW916 assessed as growth inhibition
Acinetobacter baumannii [32] = assay: Antibacterial activity against Acinetobacter baumannii GDW786 assessed as growth inhibition

C/C=C\C=C\[C@@H]1O[C@](O)([C@H](CC)C(=O)NC/C=C/C=C(\C)[C@@H](OC)[C@@H](C)C(O)[C@@H](O)/C=C/C=C/C=C/C=C(\C)C(=O)c2c(O)ccn(C)c2=O)C[C@H](O)C1(C)C (some centres not stated)
2: fractional inhibitory concentration index (FICI) (Escherichia coli [5]) | fractional inhibitory concentration index (FICI) (Staphylococcus aureus [7]) | fractional inhibitory concentration index (FICI) (Pseudomonas aeruginosa [8]) | fractional inhibitory concentration index (FICI) (Acinetobacter baumannii [21])
16 µg/mL: MIC (Acinetobacter baumannii [19]) | MIC (Acinetobacter baumannii [23]) | MIC (Enterococcus faecalis [26])
0.25: fractional inhibitory concentration index (FICI) (Acinetobacter baumannii [30])
32 µg/mL: MIC (Staphylococcus aureus [2]) | MIC (Acinetobacter baumannii [12])
128 µg/mL: MIC (Pseudomonas aeruginosa [6]) | MIC (Pseudomonas aeruginosa [10]) | MIC (Escherichia coli [11]) | MIC (Escherichia coli [15]) | MIC (Pseudomonas aeruginosa [18]) | MIC (Pseudomonas aeruginosa [20]) | MIC (Acinetobacter baumannii [27]) | MIC (Klebsiella pneumoniae [29]) | MIC (Escherichia coli [31]) | MIC (Acinetobacter baumannii [32])
0.5: fractional inhibitory concentration index (FICI) (Klebsiella pneumoniae [9])
> 128 µg/mL: MIC (Pseudomonas aeruginosa [1]) | MIC (Staphylococcus aureus [3]) | MIC (Staphylococcus aureus [16]) | MIC (Staphylococcus aureus [17]) | MIC (Klebsiella pneumoniae [25])
64 µg/mL: MIC (Escherichia coli [4]) | MIC (Enterococcus faecalis [24])
0.375: fractional inhibitory concentration index (FICI) (Enterococcus faecalis [28])
8 µg/mL: MIC (Acinetobacter baumannii [13]) | MIC (Acinetobacter baumannii [14]) | MIC (Acinetobacter baumannii [22])
